Data set [1] deals with Leishmania major. The data set is described as follows: Antileishmanial activity against Leishmania major promastigotes measured after 24 hrs by alamar blue staining based fluorescence assay. Format: functional, organism-based.
Data set [2] relates to Leishmania major. The data set is described as follows: Reversible inhibition of DHFR-TS/PTR1 in Leishmania major promastigote form in presence of excess folic acid.
The subject of data set [3] is Leishmania major. As to the kind of experiment: Antileishmanial activity against Leishmania major amastigotes measured after 72 hrs by resazurin dye based fluorescence assay. Format: functional, organism-based. A general note: The colour change of resazurin is a common sign of viable cells or microbes.
Data set [4] has as its system Leishmania major. As to the kind of experiment: Potency index, ratio of miltefosine IC50 for Leishmania major amastigote form to compound IC50 for Leishmania major amastigote form. Format: functional.
Data set [5] can be described thus: Cytotoxicity against African green monkey Vero cells after 72 hrs by crystal violet staining based assay. Format: cell-based. The settings on record: chlorocebus sabaeus.
A short description of data set [6]: Selectivity index, ratio of CC50 for African green monkey Vero cells to IC50 for leishmania major promastigote. Format: toxicity. Particulars: read-out: Ratio CC50/IC50.
The subject of data set [7] is Leishmania major. As to the kind of experiment: Inhibition of DHFR-TS/PTR1 in Leishmania major promastigote form assessed as parasite survival at 4.5 uM measured after 48 hrs relative to control.
Data set [8] concerns Leishmania major. As to the kind of experiment: Inhibition of DHFR-TS/PTR1 in Leishmania major promastigote form assessed as parasite survival at 4.5 uM measured after 48 hrs in presence of 20 uM folic acid relative to control.
Data set [9] concerns Leishmania major. The data set is described as follows: Inhibition of DHFR-TS/PTR1 in Leishmania major promastigote form assessed as parasite survival at 4.5 uM measured after 48 hrs in presence of 100 uM of folic acid relative to control.
Data set [10] deals with Leishmania major. The data set is described as follows: Antileishmanial activity against Leishmania major promastigote form assessed as parasite survival at 4.5 uM measured after 48 hrs in presence of 20 uM of folinic acid relative to control. Format: functional.
In data set [11] the test system is Leishmania major. The data set is described as follows: Antileishmanial activity against Leishmania major promastigote form assessed as parasite survival at 4.5 uM measured after 48 hrs in presence of 100 uM of folinic acid relative to control. Format: functional.
The subject of data set [12] is Leishmania major. Particulars: 100 uM.
Description: Inhibition of DHFR-TS/PTR1 in Leishmania major promastigote form assessed as parasite survival at 100 uM measured after 48 hrs relative to control
Data set [13] relates to Leishmania major. Particulars: 100 uM. The source holds these as a separate data set.
Description: Inhibition of DHFR-TS/PTR1 in Leishmania major promastigote form assessed as parasite survival at 100 uM measured after 48 hrs in presence of 100 uM folic acid relative to control
For data set [14], the system named is Leishmania major. As to the kind of experiment: Inhibition of DHFR-TS/PTR1 in Leishmania major promastigote form assessed as parasite survival at 5.9 uM measured after 48 hrs relative to control.
Data set [15] concerns Leishmania major. The data set is described as follows: Inhibition of DHFR-TS/PTR1 in Leishmania major promastigote form assessed as parasite survival at 5.9 uM measured after 48 hrs in presence of 20 uM folic acid relative to control.
The test system of data set [16] is Leishmania major. As to the kind of experiment: Inhibition of DHFR-TS/PTR1 in Leishmania major promastigote form assessed as parasite survival at 5.9 uM measured after 48 hrs in presence of 100 uM folic acid relative to control.
Data set [17] has as its system Leishmania major. The data set is described as follows: Antileishmanial activity against Leishmania major promastigote form assessed as parasite survival at 5.9 uM measured after 48 hrs in presence of 20 uM folinic acid relative to control. Format: functional.
The test system of data set [18] is Leishmania major. The data set is described as follows: Antileishmanial activity against Leishmania major promastigote form assessed as parasite survival at 5.9 uM measured after 48 hrs in presence of 100 uM folinic acid relative to control. Format: functional.

Calls of active or inactive are those of the source. The calls are words filed in the database; no cut-off is given here.

Broadly, the IC50 is the concentration needed to halve the response being measured. The CC50 is the concentration at which the toxic effect on the cells reaches its halfway point.

Molecule `COc1ccc(-c2ccc(C(=O)NNC(=O)Nc3ccc(Cl)cc3)c(C)n2)cc1OC` came in with an IC50 in the data set with Leishmania major [1] of 18.8 µM. Further, in the data set with Leishmania major [2], the “reversible inhibition (active/inactive)” value is “Active”.

As for `COc1ccc(NC(=S)NNC(=O)c2ccc(-c3ccc(OC)c(OC)c3)nc2C)cc1`, the IC50 with Leishmania major [1] was determined as 6.4 µM; with Leishmania major [3] it was 4.8 µM. For the same molecule, the “Ratio IC50” value with Leishmania major [4] is 1.2 - 2.2. The molecule also gave a CC50 at 72 h in data set [5] of 632 µM. Further, in data set [6], the selectivity ratio was 98.8. In the data set on Leishmania major [2], the “reversible inhibition (active/inactive)” value is “Active”.

With `COc1cc(-c2ccc(C(=O)NNC(=O)Nc3ccc(Cl)cc3)c(C)n2)cc(OC)c1OC`, in the data set with Leishmania major [1], it took 23.9 µM to reach half-maximal inhibition (IC50). Besides, the “reversible inhibition (active/inactive)” value with Leishmania major [2] was “Active”.

Turning to `COc1ccc(-c2ccc(C(=O)NNC(=O)Nc3ccccc3)c(C)n2)cc1`, the IC50 in the data set with Leishmania major [1] came to 18.6 µM. For the same molecule, in the data set with Leishmania major [2], the “reversible inhibition (active/inactive)” value was “Active”.

With `COc1ccc(NC(=O)NNC(=O)c2ccc(-c3ccc(OC)cc3)nc2C)cc1`, the IC50 in the data set on Leishmania major [1] is 20 µM. In addition, the “reversible inhibition (active/inactive)” value with Leishmania major [2] is “Active”.

Take `COc1cc(-c2ccc(C(=O)NNC(=S)Nc3ccc(Cl)cc3)c(C)n2)cc(OC)c1OC`: the IC50 was determined as 4.3 µM with Leishmania major [1] and 3.3 µM in the data set with Leishmania major [3]. Further, the “Ratio IC50” value in the data set with Leishmania major [4] is listed as 1.2 - 2.2. Further, the Survival is 23% in the data set on Leishmania major [7]; 78% in the data set with Leishmania major [8]; 87% in the data set on Leishmania major [9]; 81% in the data set on Leishmania major [10]; 93% in the data set on Leishmania major [11]. In data set [5], this molecule returned a CC50 at 72 h of 523 µM. In data set [6], the selectivity ratio amounted to 122. In addition, the “reversible inhibition (active/inactive)” value with Leishmania major [2] is “Active”.

The molecule `COc1ccc(-c2ccc(C(=O)NNC(=O)Nc3ccc(Cl)cc3)c(C)n2)cc1` had an IC50 in the data set with Leishmania major [1] of 21.9 µM. Moreover, the “reversible inhibition (active/inactive)” value with Leishmania major [2] was “Active”.

In turn, `COc1ccc(NC(=O)NNC(=O)c2ccc(-c3cc(OC)c(OC)c(OC)c3)nc2C)cc1` showed an IC50 in the data set on Leishmania major [1] of 22.5 µM. Further, the “reversible inhibition (active/inactive)” value with Leishmania major [2] was “Active”.

As for `COc1ccc(NC(=S)NNC(=O)c2ccc(-c3ccc(OC)cc3)nc2C)cc1`, it took 11.4 µM to reach half-maximal inhibition in the data set with Leishmania major [1] (IC50). In addition, the “reversible inhibition (active/inactive)” value in the data set with Leishmania major [2] is “Active”.

On to `COc1ccc(-c2ccc(C(=O)NNC(=S)Nc3ccccc3)c(C)n2)cc1OC`, for which it took 9.2 µM to reach half-maximal inhibition in the data set on Leishmania major [1] (IC50). Further, the “reversible inhibition (active/inactive)” value in the data set on Leishmania major [2] is “Active”.

As to `COc1ccc(-c2ccc(C(=O)NNC(=O)Nc3ccccc3)c(C)n2)cc1OC`, in the data set on Leishmania major [1], inhibition was half-maximal at 16.7 µM (IC50). Besides, the “reversible inhibition (active/inactive)” value in the data set with Leishmania major [2] was “Active”.

`COc1cc(-c2ccc(C(=O)NNC(=O)Nc3ccccc3)c(C)n2)cc(OC)c1OC` yielded an IC50 in the data set with Leishmania major [1] of 19.8 µM. The “reversible inhibition (active/inactive)” value with Leishmania major [2] was “Active”.

As to `COc1ccc(-c2ccc(C(=O)NNC(=S)Nc3ccccc3)c(C)n2)cc1`, the IC50 in the data set on Leishmania major [1] worked out at 12 µM. Also, the “reversible inhibition (active/inactive)” value with Leishmania major [2] was “Active”.

In turn, `COc1ccc(NC(=O)NNC(=O)c2ccc(-c3ccc(OC)c(OC)c3)nc2C)cc1` came in with an IC50 with Leishmania major [1] of 19.7 µM. Also, the “reversible inhibition (active/inactive)” value in the data set with Leishmania major [2] was “Active”.

Take `COc1cc(-c2ccc(C(=O)NNC(=S)Nc3ccc(C)cc3)c(C)n2)cc(OC)c1OC`: the figures for the IC50 in the data set on Leishmania major [1] and in the data set on Leishmania major [3] were 6.1 µM and 5.8 µM, respectively. In the data set on Leishmania major [4], the “Ratio IC50” value is listed as 1.2 - 2.2. For the same molecule, it took 574 µM to reach half-maximal cytotoxicity in data set [5] (CC50 at 72 h). In addition, the selectivity ratio in data set [6] was determined as 94.2. In the data set with Leishmania major [2], the “reversible inhibition (active/inactive)” value was “Active”.

Regarding `COc1cc(Cc2cnc(N)nc2N)cc(OC)c1OC`, the “reversible inhibition (active/inactive)” value in the data set with Leishmania major [2] is “Active”. Moreover, the Survival in the data set on Leishmania major [12] turned out to be 69%; with Leishmania major [13], 99%.

As for `COc1ccc(-c2ccc(C(=O)NNC(=S)Nc3ccc(C)cc3)c(C)n2)cc1OC`, the IC50 with Leishmania major [1] was determined as 10.2 µM. Moreover, in the data set on Leishmania major [2], the “reversible inhibition (active/inactive)” value is “Active”.

As to `CCCCCCCCCCCCCCCCOP(=O)([O-])OCC[N+](C)(C)C` [MILTEFOSINE], the figures for the IC50 with Leishmania major [1] and with Leishmania major [3] were 7.6 µM and 7.3 µM, respectively.

In the case of `COc1ccc(-c2ccc(C(=O)NNC(=S)Nc3ccc(C)cc3)c(C)n2)cc1`, the IC50 in the data set with Leishmania major [1] is 10.7 µM. For the same molecule, the “Ratio IC50” value in the data set on Leishmania major [4] was 1.2 - 2.2. For the same molecule, the “reversible inhibition (active/inactive)” value in the data set on Leishmania major [2] is “Active”.

With `COc1ccc(-c2ccc(C(=O)NNC(=S)Nc3ccc(Cl)cc3)c(C)n2)cc1`, the IC50 in the data set with Leishmania major [1] is 16.7 µM. For the same molecule, in the data set on Leishmania major [2], the “reversible inhibition (active/inactive)” value is “Active”.

In the case of `COc1ccc(NC(=S)NNC(=O)c2ccc(-c3cc(OC)c(OC)c(OC)c3)nc2C)cc1`, the results for the IC50 with Leishmania major [1] and in the data set with Leishmania major [3] were 5.8 µM and 5.9 µM, respectively. Besides, the “Ratio IC50” value in the data set with Leishmania major [4] is on record as 1.2 - 2.2. Further, the CC50 at 72 h in data set [5] amounted to 506 µM. Moreover, in data set [6], the selectivity ratio was 87.2. Further, the “reversible inhibition (active/inactive)” value in the data set on Leishmania major [2] was “Active”.

`COc1ccc(-c2ccc(C(=O)NNC(=S)Nc3ccc(Cl)cc3)c(C)n2)cc1OC`: the IC50 in the data set on Leishmania major [1] amounted to 17.4 µM. In addition, the “reversible inhibition (active/inactive)” value in the data set with Leishmania major [2] is “Active”.

With `COc1cc(-c2ccc(C(=O)NNC(=S)Nc3ccccc3)c(C)n2)cc(OC)c1OC`, the IC50 in the data set with Leishmania major [1] was found to be 5.7 µM; with Leishmania major [3] it was 4.2 µM. Also, the “Ratio IC50” value in the data set with Leishmania major [4] is 1.2 - 2.2. For the same molecule, the Survival with Leishmania major [14] was 25%; in the data set with Leishmania major [15] it was 72%; in the data set with Leishmania major [16], 84%; with Leishmania major [17] it was 75%; in the data set on Leishmania major [18], 88%. The molecule also displayed a CC50 at 72 h in data set [5] of 513 µM. Moreover, the selectivity ratio in data set [6] was found to be 90.1. Moreover, the “reversible inhibition (active/inactive)” value in the data set with Leishmania major [2] was “Active”.
